Results reported in ChEMBL document CHEMBL1201862, “PubChem BioAssay data set” (2004).
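Assay format: 96-well plates, 48-hour exposure. GI50 is the concentration that inhibits growth by half.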 Activity calls are given as the source filed them. Rule as the data show it: active = GI50 up to about 1.1 µM and inactive = higher.

Columns and labels:
Experiment in all cases: growth of human tumour cells (NCI), 48 h
[1] = system: 786-0
[2] = system: A549
[3] = system: BT-549
[4] = system: CAKI-1
[5] = system: CCRF-CEM
[6] = system: COLO 205
[7] = system: DU-145
[8] = system: EKVX
[9] = system: HCC 2998
[10] = system: HCT-116
[11] = system: HCT-15
[12] = system: HL-60
[13] = system: HOP-92
[14] = system: HT-29
[15] = system: Hs-578T
[16] = system: IGROV-1
[17] = system: K562
[18] = system: KM12
[19] = system: LOX IMVI
[20] = system: M14
[21] = system: MCF7
[22] = system: MDA-MB-231
[23] = system: MDA-MB-435
[24] = system: MOLT-4
[25] = system: NCI-H226
[26] = system: NCI-H23
[27] = system: NCI-H460
[28] = system: NCI-H522
[29] = system: NCI/ADR-RES
[30] = system: OVCAR-3
[31] = system: OVCAR-4
[32] = system: OVCAR-5
[33] = system: OVCAR-8
[34] = system: PC-3
[35] = system: RPMI-8226
[36] = system: SF-268
[37] = system: SF-295
[38] = system: SF-539
[39] = system: SK-MEL-28
[40] = system: SK-MEL-2
[41] = system: SK-MEL-5
[42] = system: SK-OV-3
[43] = system: SN12C
[44] = system: SR
[45] = system: SW-620
[46] = system: TK-10
[47] = system: U-251
[48] = system: UACC-257
[49] = system: UACC-62
[50] = system: UO-31
[51] = system: A498
[52] = system: ACHN
[53] = system: HOP-62
[54] = system: MDA-N
[55] = system: Malme-3M
[56] = system: RXF 393
[57] = system: SNB-19
[58] = system: SNB-75
[59] = system: T47D

## c1ccc2c(c1)nc1n2sc2nc3ccccc3n21
[1]
  GI50: > 100 µM (inactive)
[2]
  GI50: > 100 µM (inactive)
[3]
  GI50: > 100 µM (inactive)
[4]
  GI50: > 100 µM (inactive)
[5]
  GI50: > 100 µM (inactive)
[6]
  GI50: > 100 µM (inactive)
[7]
  GI50: > 100 µM (inactive)
[8]
  GI50: 54 µM (inactive)
[9]
  GI50: > 100 µM (inactive)
[10]
  GI50: > 100 µM (inactive)
[11]
  GI50: > 100 µM
[12]
  GI50: > 100 µM (inactive)
[13]
  GI50: > 100 µM (inactive)
[14]
  GI50: > 100 µM (inactive)
[15]
  GI50: > 100 µM (inactive)
[16]
  GI50: > 100 µM (inactive)
[17]
  GI50: > 100 µM (inactive)
[18]
  GI50: > 100 µM (inactive)
[19]
  GI50: > 100 µM (inactive)
[20]
  GI50: > 100 µM (inactive)
[21]
  GI50: 35.6 µM (inactive)
[22]
  GI50: > 100 µM (inactive)
[23]
  GI50: > 100 µM (inactive)
[24]
  GI50: > 100 µM (inactive)
[25]
  GI50: > 100 µM (inactive)
[26]
  GI50: > 100 µM (inactive)
[27]
  GI50: > 100 µM (inactive)
[28]
  GI50: 34.9 µM (inactive)
[29]
  GI50: > 100 µM (inactive)
[30]
  GI50: > 100 µM (inactive)
[31]
  GI50: > 100 µM (inactive)
[32]
  GI50: > 100 µM (inactive)
[33]
  GI50: > 100 µM (inactive)
[34]
  GI50: > 100 µM (inactive)
[35]
  GI50: > 100 µM (inactive)
[36]
  GI50: > 100 µM (inactive)
[37]
  GI50: > 100 µM (inactive)
[38]
  GI50: > 100 µM (inactive)
[39]
  GI50: > 100 µM (inactive)
[40]
  GI50: > 100 µM (inactive)
[41]
  GI50: > 100 µM (inactive)
[42]
  GI50: > 100 µM (inactive)
[43]
  GI50: > 100 µM (inactive)
[44]
  GI50: > 100 µM (inactive)
[45]
  GI50: > 100 µM (inactive)
[46]
  GI50: > 100 µM (inactive)
[47]
  GI50: > 100 µM (inactive)
[48]
  GI50: > 100 µM (inactive)
[49]
  GI50: 51.6 µM (inactive)
[50]
  GI50: > 100 µM (inactive)

## COc1cc2c(cc1OC)C1CCc3ccccc3CN1CC2 (stereo unspecified)
[1]
  GI50: > 100 µM (inactive)
[51]
  GI50: > 100 µM (inactive)
[2]
  GI50: > 100 µM (inactive)
[52]
  GI50: > 100 µM (inactive)
[4]
  GI50: > 100 µM (inactive)
[5]
  GI50: > 100 µM (inactive)
[6]
  GI50: > 100 µM (inactive)
[7]
  GI50: > 100 µM (inactive)
[8]
  GI50: > 100 µM (inactive)
[9]
  GI50: > 100 µM (inactive)
[10]
  GI50: > 100 µM (inactive)
[11]
  GI50: > 100 µM
[12]
  GI50: > 100 µM (inactive)
[53]
  GI50: > 100 µM (inactive)
[13]
  GI50: > 100 µM (inactive)
[14]
  GI50: > 100 µM (inactive)
[15]
  GI50: > 100 µM (inactive)
[16]
  GI50: > 100 µM (inactive)
[17]
  GI50: > 100 µM (inactive)
[18]
  GI50: > 100 µM (inactive)
[19]
  GI50: > 100 µM (inactive)
[20]
  GI50: > 100 µM (inactive)
[21]
  GI50: > 100 µM (inactive)
[22]
  GI50: > 100 µM (inactive)
[23]
  GI50: > 100 µM (inactive)
[54]
  GI50: > 100 µM (inactive)
[24]
  GI50: > 100 µM (inactive)
[55]
  GI50: > 100 µM (inactive)
[25]
  GI50: > 100 µM (inactive)
[26]
  GI50: > 100 µM (inactive)
[27]
  GI50: > 100 µM (inactive)
[28]
  GI50: > 100 µM (inactive)
[29]
  GI50: > 100 µM (inactive)
[30]
  GI50: > 100 µM (inactive)
[31]
  GI50: > 100 µM (inactive)
[32]
  GI50: > 100 µM (inactive)
[33]
  GI50: > 100 µM (inactive)
[34]
  GI50: > 100 µM (inactive)
[56]
  GI50: > 100 µM (inactive)
[36]
  GI50: > 100 µM (inactive)
[37]
  GI50: > 100 µM (inactive)
[38]
  GI50: > 100 µM (inactive)
[39]
  GI50: > 100 µM (inactive)
[40]
  GI50: > 100 µM (inactive)
[41]
  GI50: > 100 µM (inactive)
[42]
  GI50: > 100 µM (inactive)
[43]
  GI50: > 100 µM (inactive)
[57]
  GI50: > 100 µM (inactive)
[58]
  GI50: > 100 µM (inactive)
[44]
  GI50: > 100 µM (inactive)
[45]
  GI50: > 100 µM (inactive)
[59]
  GI50: > 100 µM (inactive)
[46]
  GI50: > 100 µM (inactive)
[47]
  GI50: > 100 µM (inactive)
[48]
  GI50: > 100 µM (inactive)
[49]
  GI50: > 100 µM (inactive)
